Results as given in ChEMBL document CHEMBL5331073, “Discovery of novel 7,7-dimethyl-6,7-dihydro-5H-pyrrolo[3,4-d]pyrimidines as ATR inhibitors based on structure-based drug design” (Eur J Med Chem, 2023).
pIC50: −log10 of the molar value. Converted amounts (≈) assume the structure as drawn. The source made the active and inactive calls. The rule behind the calls is not given here.

Columns and labels:
Cytochrome P450 2C19 = Cytochrome P450 2C19 (Homo sapiens, UniProt P33261); assay: Inhibition of CYP2C19 in human liver microsomes using […] as substrate preincubated for 5 mins followed by NADPH addition and measured after 120 mins by LC-MS/MS analysis; type: ADME, Microsome
HT-29 [1] = assay: Antiproliferative activity against ATM-proficient human HT-29 cells assessed as reduction in cell proliferation incubated for 3 days by MTT assay; type: functional, cell-based; details: HT-29, 72 h
[2] = Clearance in Sprague-Dawley rat at 1 mg/kg, iv and measured upto 24 hrs by LC-MS analysis; type: ADME, organism-based; details: in vivo
[3] = biological target: Phosphatidylinositol 4,5-bisphosphate 3-kinase catalytic subunit alpha isoform (Homo sapiens, UniProt P42336); assay: Inhibition of PI3Kalpha (unknown origin) using peptide as substrate preincubated for 10 mins followed by substrate addition by microplate reader analysis
[4] = AUC (0 to infinity) in Sprague-Dawley rat at 5 mg/kg, po and measured upto 24 hrs by LC-MS analysis; type: ADME, organism-based; parameters: time < 24 hrs, dose 5 mg/kg, route po; details: in vivo
in vitro [5] = details: rat, liver microsomes
[6] = Apparent permeability across apical to basolateral side in human Caco-2 cells by bidirectional permeability assay; type: ADME, cell-based
OVCAR-3 = assay: Antiproliferative activity against ATM-deficient human OVCAR-3 cells assessed as reduction in cell viability incubated for 3 days by MTT assay; type: functional, cell-based; details: OVCAR-3, 72 h
[7] = Protein binding in monkey plasma at 1 uM incubated for 6 hrs by dialysis based LC-MS/MS analysis; type: ADME, cell-free, Macaca mulatta; details: rhesus monkey, read-out: PPB (converted)
MCF7 = assay: Synergistic antiproliferative activity against human MCF7 cells assessed as reduction in cell viability incubated for 3 days in presence of olaparib by MTT assay; type: functional, cell-based; details: MCF7, 72 h
in vitro [8] = details: human, liver microsomes
[9] = MRT(t) in Sprague-Dawley rat at 5 mg/kg, po and measured upto 24 hrs by LC-MS analysis; type: ADME, organism-based; details: in vivo
HT-29 [10] = assay: Antiproliferative activity against ATM-proficient human HT-29 cells assessed as reduction in cell viability incubated for 3 days in presence of AZD-1390 by MTT assay; type: functional, cell-based; details: HT-29, 72 h
LoVo [11] = assay: Antimigratory activity against ATM-deficient human LoVo cells assessed as inhibition of cell migration at 0.03 to 3 uM incubated for 24 hrs by crystal violet staining based Transwell migration assay; type: functional; details: dose 0.03-3 µM
[12] = Volume of distribution at steady state in Sprague-Dawley rat at 1 mg/kg, iv and measured upto 24 hrs by LC-MS analysis; type: ADME, organism-based; details: in vivo, read-out: Vdss
HCT-116 [13] = assay: Synergistic antiproliferative activity against ATM-proficient human HCT-116 cells assessed as reduction in cell viability incubated for 3 days in presence of cisplatin by MTT assay; type: functional, cell-based; details: HCT-116, 72 h
Cytochrome P450 2D6 = Cytochrome P450 2D6 (Homo sapiens, UniProt P10635); assay: Inhibition of CYP2D6 in human liver microsomes using […] as substrate preincubated for 5 mins followed by NADPH addition and measured after 120 mins by LC-MS/MS analysis; type: ADME, Microsome
[14] = Tmax in Sprague-Dawley rat at 5 mg/kg, po and measured upto 24 hrs by LC-MS analysis; type: ADME, organism-based; details: in vivo
[15] = Half life in Sprague-Dawley rat at 1 mg/kg, iv and measured upto 24 hrs by LC-MS analysis; type: ADME, organism-based; details: in vivo
HCT-116 [16] = assay: Synergistic antiproliferative activity against ATM-proficient human HCT-116 cells assessed as reduction in cell viability incubated for 3 days in presence of oxaliplatin by MTT assay; type: functional, cell-based; details: HCT-116, 72 h
[17] = Aqueous solubility of compound at pH 2.0 by HPLC-MS/MS analysis; type: physicochemical; details: aqueous medium
[18] = biological target: DNA-dependent protein kinase catalytic subunit (Homo sapiens, UniProt P78527); assay: Inhibition of DNA-PK (unknown origin) using peptide as substrate preincubated for 10 mins followed by substrate addition by microplate reader analysis
LoVo [19] = assay: Antiproliferative activity against ATM-deficient human LoVo cells assessed as reduction in cell proliferation incubated for 3 days by MTT assay; type: functional, cell-based; details: 72 h
A549 = assay: Antiproliferative activity against ATM-proficient human A549 cells assessed as reduction in cell viability incubated for 3 days by MTT assay; type: functional, cell-based; details: A549, 72 h
LoVo [20] = assay: Inhibition of colony formation of ATM-deficient human LoVo cells at 0.03 to 3 uM incubated for 2 weeks by crystal violet staining based assay; type: functional, cell-based; details: dose 0.03-3 µM
HCT-116 [21] = assay: Antiproliferative activity against ATM-proficient human HCT-116 cells assessed as reduction in cell viability incubated for 3 days by MTT assay; type: functional, cell-based; details: HCT-116, 72 h
Cytochrome P450 1A2 = biological target: T1, Cytochrome P450 1A2 (Homo sapiens, UniProt P05177); assay: Inhibition of CYP1A2 in human liver microsomes using […] as substrate preincubated for 5 mins followed by NADPH addition and measured after 120 mins by LC-MS/MS analysis; type: ADME, Microsome
T1 sequence (P05177 whole entry): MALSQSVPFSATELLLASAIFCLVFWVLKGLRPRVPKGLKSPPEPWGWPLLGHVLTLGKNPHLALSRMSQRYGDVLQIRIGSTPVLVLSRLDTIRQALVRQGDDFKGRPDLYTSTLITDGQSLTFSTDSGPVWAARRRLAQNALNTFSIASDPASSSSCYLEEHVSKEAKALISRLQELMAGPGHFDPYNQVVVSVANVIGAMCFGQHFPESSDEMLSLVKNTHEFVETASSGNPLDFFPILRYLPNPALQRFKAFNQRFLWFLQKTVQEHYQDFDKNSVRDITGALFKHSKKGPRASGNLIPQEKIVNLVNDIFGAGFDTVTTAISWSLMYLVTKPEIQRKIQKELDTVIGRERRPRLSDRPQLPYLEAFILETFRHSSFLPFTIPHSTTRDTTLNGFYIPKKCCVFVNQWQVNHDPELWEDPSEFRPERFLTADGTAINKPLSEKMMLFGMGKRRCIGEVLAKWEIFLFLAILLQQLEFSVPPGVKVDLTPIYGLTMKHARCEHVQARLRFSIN

[22] = Cmax in Sprague-Dawley rat at 5 mg/kg, po and measured upto 24 hrs by LC-MS analysis; type: ADME, organism-based; parameters: time < 24 hrs, dose 5 mg/kg, route po; details: in vivo
[23] = MRT (0 to infinity) in Sprague-Dawley rat at 1 mg/kg, iv and measured upto 24 hrs by LC-MS analysis; type: ADME, organism-based; details: in vivo
SW-620 = assay: Antiproliferative activity against ATM-deficient human SW620 cells assessed as reduction in cell viability incubated for 3 days by MTT assay; type: functional, cell-based; details: SW-620, 72 h
[24] = biological target: Serine/threonine-protein kinase mTOR (Homo sapiens, UniProt P42345); assay: Inhibition of mTOR (unknown origin) using peptide as substrate preincubated for 10 mins followed by substrate addition by microplate reader analysis
[25] = Half life in Sprague-Dawley rat at 5 mg/kg, po and measured upto 24 hrs by LC-MS analysis; type: ADME, organism-based; details: in vivo
MDA-MB-231 = assay: Synergistic antiproliferative activity against human MDA-MB-231 cells assessed as reduction in cell viability incubated for 3 days in presence of olaparib by MTT assay; type: functional, cell-based; details: MDA-MB-231, 72 h
[26] = Protein binding in rat plasma at 1 uM incubated for 6 hrs by dialysis based LC-MS/MS analysis; type: ADME, cell-free; details: read-out: PPB (converted)

Chain of Phosphatidylinositol 4,5-bisphosphate 3-kinase catalytic subunit alpha isoform (P42336 whole entry, canonical isoform): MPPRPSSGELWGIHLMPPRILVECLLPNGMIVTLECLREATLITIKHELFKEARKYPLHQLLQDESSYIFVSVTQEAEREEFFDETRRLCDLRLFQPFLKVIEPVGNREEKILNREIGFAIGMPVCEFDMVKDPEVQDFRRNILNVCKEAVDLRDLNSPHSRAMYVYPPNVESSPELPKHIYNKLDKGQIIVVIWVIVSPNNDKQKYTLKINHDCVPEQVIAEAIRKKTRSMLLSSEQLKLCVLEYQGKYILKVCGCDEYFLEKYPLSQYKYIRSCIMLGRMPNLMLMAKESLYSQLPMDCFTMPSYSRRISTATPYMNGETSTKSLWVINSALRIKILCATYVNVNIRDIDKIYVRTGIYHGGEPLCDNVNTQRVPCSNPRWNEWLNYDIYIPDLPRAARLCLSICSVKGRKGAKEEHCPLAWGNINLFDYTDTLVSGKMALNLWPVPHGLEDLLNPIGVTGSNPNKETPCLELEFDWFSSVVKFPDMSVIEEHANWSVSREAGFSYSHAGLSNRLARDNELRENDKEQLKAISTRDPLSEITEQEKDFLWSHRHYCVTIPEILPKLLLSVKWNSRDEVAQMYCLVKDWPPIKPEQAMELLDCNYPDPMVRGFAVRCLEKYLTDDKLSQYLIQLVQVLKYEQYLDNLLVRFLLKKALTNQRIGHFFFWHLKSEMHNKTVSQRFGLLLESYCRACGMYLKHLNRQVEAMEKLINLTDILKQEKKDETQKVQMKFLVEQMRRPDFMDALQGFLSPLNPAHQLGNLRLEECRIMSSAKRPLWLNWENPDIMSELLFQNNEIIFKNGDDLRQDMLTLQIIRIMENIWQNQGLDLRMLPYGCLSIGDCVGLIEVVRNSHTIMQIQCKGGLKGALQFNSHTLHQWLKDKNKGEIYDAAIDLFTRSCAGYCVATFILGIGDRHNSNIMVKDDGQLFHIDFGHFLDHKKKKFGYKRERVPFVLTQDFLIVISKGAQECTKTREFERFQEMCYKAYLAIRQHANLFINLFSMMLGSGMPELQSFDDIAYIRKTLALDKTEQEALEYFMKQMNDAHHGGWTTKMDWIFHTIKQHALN
Chain of Cytochrome P450 2D6 (P10635 whole entry): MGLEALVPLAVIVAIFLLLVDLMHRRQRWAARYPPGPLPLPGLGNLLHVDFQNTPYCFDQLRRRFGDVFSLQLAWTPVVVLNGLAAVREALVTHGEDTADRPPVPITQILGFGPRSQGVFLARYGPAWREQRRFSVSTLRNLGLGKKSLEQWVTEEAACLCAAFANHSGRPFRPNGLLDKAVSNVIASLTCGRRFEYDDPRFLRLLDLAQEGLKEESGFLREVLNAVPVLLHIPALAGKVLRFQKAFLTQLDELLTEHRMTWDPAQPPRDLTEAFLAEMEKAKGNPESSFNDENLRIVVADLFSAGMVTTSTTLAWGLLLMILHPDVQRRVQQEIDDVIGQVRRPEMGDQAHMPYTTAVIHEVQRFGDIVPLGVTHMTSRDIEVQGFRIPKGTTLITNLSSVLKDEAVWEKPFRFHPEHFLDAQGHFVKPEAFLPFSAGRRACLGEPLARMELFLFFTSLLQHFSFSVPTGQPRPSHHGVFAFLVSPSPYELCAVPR
Chain of Cytochrome P450 2C19 (P33261 whole entry): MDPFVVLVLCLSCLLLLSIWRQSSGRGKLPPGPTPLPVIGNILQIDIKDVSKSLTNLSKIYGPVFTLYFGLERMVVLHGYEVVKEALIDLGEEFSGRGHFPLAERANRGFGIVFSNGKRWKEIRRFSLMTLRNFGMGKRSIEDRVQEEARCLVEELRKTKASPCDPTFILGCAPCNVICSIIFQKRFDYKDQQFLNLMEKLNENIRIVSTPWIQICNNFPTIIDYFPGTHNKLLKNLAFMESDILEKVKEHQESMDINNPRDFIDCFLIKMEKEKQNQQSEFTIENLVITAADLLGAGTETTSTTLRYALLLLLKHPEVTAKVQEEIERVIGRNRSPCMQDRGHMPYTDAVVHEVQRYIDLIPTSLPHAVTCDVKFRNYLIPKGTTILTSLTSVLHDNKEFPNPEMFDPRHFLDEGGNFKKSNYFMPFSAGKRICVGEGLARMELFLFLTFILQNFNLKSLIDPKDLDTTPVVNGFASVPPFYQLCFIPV

In the case of `C[C@@H]1COCCN1c1nc(-c2cccc3[nH]ccc23)nc2c1CN(C(=O)c1ccc3c(c1)OCO3)C2(C)C`, the pIC50 (Cytochrome P450 2C19) was 6.00, the pIC50 (HT-29 [1]) was 6.38 and the clearance [2] was 5.97 mL/min/kg. For the same compound, the pIC50 [3] was 6.00, the AUC(0-inf) [4] was 6170 ng·h/mL and the CLint scaled at 1 h, 1 µM (in vitro [5]) was 63.6 mL/min/kg. For the same compound, the Papp A→B [6] was 1.91 ×10⁻⁶ cm/s, the pIC50 (OVCAR-3) was 6.90 and the fraction unbound at 6 h, 1 µM [7] was 0.011. It also gave a pIC50 (MCF7) of 6.46, a CLint scaled at 1 h, 1 µM (in vitro [8]) of 50.3 mL/min/kg and an MRT last at 24 h [9] of 4.36 h. For the same compound, the pIC50 (HT-29 [10]) was 7.35, the inhibition (LoVo [11]) was “Active” and the Vd [12] was 0.785 L/kg. The pIC50 (HCT-116 [13]) was 7.03, the pIC50 (Cytochrome P450 2D6) was < 5.00 and the Tmax [14] was 1.67 h. For the same compound, the half-life [15] was 1.59 h, the pIC50 (HCT-116 [16]) was 7.17 and the solubility [17] was 47.6 µM (≈ 24.4 µg/mL). The pIC50 [18] was 6.00, the pIC50 (LoVo [19]) was 7.11 and the pIC50 (A549) was 6.13. For the same compound, the inhibition (LoVo [20]) was “Dose-Dependent Effect”, the pIC50 (HCT-116 [21]) was 6.71 and the pIC50 (Cytochrome P450 1A2) was < 5.00. It also gave a Cmax [22] of 1290 ng/mL, an MRT inf [23] of 2.19 h and a pIC50 (SW-620) of 6.84. The pIC50 [24] was 7.48, the half-life [25] was 3.81 h and the pIC50 (MDA-MB-231) was 6.55. The fraction unbound at 6 h, 1 µM [26] was 0.001.

Compound `C[C@@H]1COCCN1c1nc(-c2cccc3[nH]ccc23)nc2c1CN(C(=O)c1cccc(S(C)(=O)=O)c1)C2(C)C` has a pIC50 (Cytochrome P450 2C19) of 6.00, a pIC50 (HT-29 [1]) of 6.71 and a clearance [2] of 14.2 mL/min/kg. For the same compound, the pIC50 [3] was 6.00, the AUC(0-inf) [4] was 1750 ng·h/mL and the CLint scaled at 1 h, 1 µM (in vitro [5]) was 119 mL/min/kg. For the same compound, the Papp A→B [6] was 8.23 ×10⁻⁶ cm/s, the pIC50 (OVCAR-3) was 7.01 and the fraction unbound at 6 h, 1 µM [7] was 0.079. For the same compound, the pIC50 (MCF7) was 6.48, the CLint scaled at 1 h, 1 µM (in vitro [8]) was 385 mL/min/kg and the MRT last at 24 h [9] was 3.6 h. For the same compound, the pIC50 (HT-29 [10]) was 7.72, the inhibition (LoVo [11]) was “Active” and the Vd [12] was 1.24 L/kg. The pIC50 (HCT-116 [13]) was 7.62, the pIC50 (Cytochrome P450 2D6) was < 5.00 and the Tmax [14] was 2 h. The half-life [15] was 1.32 h, the pIC50 (HCT-116 [16]) was 7.89 and the solubility [17] was 84.3 µM (≈ 46 µg/mL). It also gave a pIC50 [18] of 6.18, a pIC50 (LoVo [19]) of 7.40 and a pIC50 (A549) of 6.52. The inhibition (LoVo [20]) was “Dose-Dependent Effect”, the pIC50 (HCT-116 [21]) was 7.39 and the pIC50 (Cytochrome P450 1A2) was < 5.00. The Cmax [22] was 282 ng/mL, the MRT inf [23] was 1.45 h and the pIC50 (SW-620) was 7.02. It also gave a pIC50 [24] of 7.74, a half-life [25] of 2.66 h and a pIC50 (MDA-MB-231) of 6.36. The fraction unbound at 6 h, 1 µM [26] was 0.039.
